This is an account of results in PMC12072002, “Site-Directed Mutagenesis Increased the Catalytic Activity and Stability of Oenococcus oeni β-Glucosidase: Characterization of Enzymatic Properties and Exploration of Mechanisms” (International Journal of Molecular Sciences, 2025).

Where two headings read alike, the source gives them in different places.

What all share (type): biochemical, Oenococcus oeni SD-2a
Experiment [1] has as its system wild-type enzyme (β-glucosidase BGL0224). Nature of the experiment: Effects of metal ions and additives on enzyme activity (p-NPG hydrolysis, IC50). As to conditions: for IC50 / IC50 on Wild-Type Enzyme: metal ions and additives, Concentration 5 mM, optimum temperature and pH; for effect on enzyme activity of the wild-type enzyme: in words. The protocol:
(§1) The method for the determination of the effects of different metal ions and additives on enzyme activity was referred to Zhou et al., with slight modifications. To determine the effects of metal ions and some additives on the BGLs’ activity, lyophilized powders of the wild-type and mutant BGLs were formulated into solutions with a final concentration of 10 mg/mL using 20 mM sodium phosphate buffer as well as 25 mM of p-NPG substrate solution and different concentrations (0.1 mM, 0.5 mM, 1.0 mM, 5.0 mM and 10 mM) of metal ion solutions (K^+, Na^+, Li^+, Ag^+, Mg^2+, Zn^2+, Ba^2+, Ca^2+, Cu^2+, Mn^2+, Fe^2+ and Fe^3+) and additive solutions (SDS, DTT, EDTA, TritonX-100 and Tween-80). The enzyme solutions (10 μL), p-NPG solution (490 μL) and different concentrations of additive solutions (500 μL) were mixed well. The reaction lasted for 30 min under the optimal reaction conditions of the enzyme. Then, 1mL 1 M Na2CO3 was added to terminate the reaction. The absorbance value of the reaction system was measured at 420 nm and the activity of the BGLs was calculated according to the standard curve. The IC50 (half of the maximum inhibitory concentration) of the reagents on BGL activity was calculated using a logistic function with Growth/Sigmoidal-type nonlinear fitting in Origin Pro 8.0.

In experiment [2] the test system is mutant III (β-glucosidase F133K). The description is as above. As to conditions: for effect on enzyme activity of mutant III: in words; for IC50 on Mutant III / IC50: metal ions and additives, Concentration 5 mM, optimum temperature and pH. The protocol:
as §1

Experiment [3] deals with mutant IV (β-glucosidase N181R). Details: key to IC50 on Mutant IV: “-”represents no enzymatic activity. As to conditions: for effect on enzyme activity of mutant IV: in words. As for the experimental part:
The method for the determination of the effects of different metal ions and additives on enzyme activity was referred to Zhou et al., with slight modifications. […] The enzyme solutions (10 μL), p-NPG solution (490 μL) and different concentrations of additive solutions (500 μL) were mixed well. The reaction lasted for 30 min under the optimal reaction conditions of the enzyme. Then, 1mL 1 M Na2CO3 was added to terminate the reaction. The absorbance value of the reaction system was measured at 420 nm and the activity of the BGLs was calculated according to the standard curve. The IC50 (half of the maximum inhibitory concentration) of the reagents on BGL activity was calculated using a logistic function with Growth/Sigmoidal-type nonlinear fitting in Origin Pro 8.0.

Experiment [4] has as its target mutant III (β-glucosidase F133K). Nature of the experiment: Effects of metal ions and additives on enzyme activity (p-NPG hydrolysis, IC50). On the set-up: key: “-”represents no enzymatic activity. As to conditions: additive concentration 0.2%.
For experiment [5], the target named is wild-type enzyme (β-glucosidase BGL0224). Described as above. Details: key: “-”represents no enzymatic activity. As to conditions: additive concentration 0.2%.
[6] abbreviates: metal ions and additives, Concentration 5 mM, optimum temperature and pH.

Turning to `[Mn+2]` [Mn^2+], the “inhibition of wild-type enzyme activity” value in experiment [1] (metal ion at 5 mM) amounted to 76.51%. The molecule also came in with an IC50 in experiment [1] of 3.76 mM. Further, the “effect on enzyme activity of mutant III” value in experiment [2] (metal ion at 5 mM) is on record as “promoted”. The “IC50 on Mutant III” value in experiment [2] is on record as “Activator”. In experiment [3] (metal ion at 5 mM), the “effect on enzyme activity of mutant IV” value was “promoted”. The “IC50 on Mutant IV” value in experiment [3] (setting [6]) is reported as “Activator”.

Take `[Cu+2]` [Cu^2+]: the “effect on enzyme activity of the wild-type enzyme” value (“effect … of the wild-type enzyme” for short) in experiment [1] (metal ion at 5 mM) is on record as “inhibitory effects”. Further, the concentration for half-maximal inhibition (IC50) in experiment [1] came out at 3.12 mM; in experiment [2], 3.48 mM; in experiment [3] (setting [6]), 1.58 mM. The “effect on enzyme activity of mutant III” value in experiment [2] (metal ion at 5 mM) is recorded as “inhibitory effects”. For the same molecule, in experiment [3] (metal ion at 5 mM), the “effect on enzyme activity of mutant IV” value is “inhibitory effects”.

As to Tween-80, the “IC50 on Mutant III” value in experiment [4] is on record as “-”. Besides, the “IC50 on Mutant IV” value in experiment [3] (additive concentration 0.2%) is recorded as “-”. Moreover, the “IC50 on Wild-Type Enzyme” value in experiment [5] is “-”.

As to `[K+]` [K^+], in experiment [1] (metal ion at 5 mM), the “effect … of the wild-type enzyme” value was “enhanced”. Moreover, the “IC50 on Wild-Type Enzyme” value in experiment [1] was “Activator”. For the same molecule, in experiment [2] (metal ion at 5 mM), the “effect on enzyme activity of mutant III” value was “enhanced”. Also, the “IC50 on Mutant III” value in experiment [2] was “Activator”. The “inhibition rate on mutant IV” value in experiment [3] (metal ion at 5 mM) was 85.02%. Besides, the IC50 in experiment [3] (setting [6]) came to 2.42 mM.

For `[Ag+]` [Ag^+], in experiment [1] (metal ion at 5 mM), the “effect … of the wild-type enzyme” value is “inhibitory effects”. The IC50 came out at 7.43 mM in experiment [1], 3.03 mM in experiment [2] and 2.93 mM in experiment [3] (setting [6]). Also, the “effect on enzyme activity of mutant III” value in experiment [2] (metal ion at 5 mM) is given as “inhibitory effects”. The “effect on enzyme activity of mutant IV” value in experiment [3] (metal ion at 5 mM) is “inhibitory effects”.

`O[C@@H](CS)[C@@H](O)CS` [DTT]: the IC50 amounted to 7.93 mM in experiment [1], 5.49 mM in experiment [2] and 6.17 mM in experiment [3] (setting [6]).

Take `[Mg+2]` [Mg^2+]: the “effect … of the wild-type enzyme” value in experiment [1] (metal ion at 5 mM) was “inhibitory effects”. Moreover, the IC50 in experiment [1] is 8.92 mM; in experiment [2], 3.37 mM; in experiment [3] (setting [6]) it was 5.35 mM. In addition, the “effect on enzyme activity of mutant III” value in experiment [2] (metal ion at 5 mM) is listed as “inhibitory effects”. For the same molecule, the “effect on enzyme activity of mutant IV” value in experiment [3] (metal ion at 5 mM) is listed as “inhibitory effects”.

With `[Ca+2]` [Ca^2+], the “effect … of the wild-type enzyme” value in experiment [1] (metal ion at 5 mM) was “inhibitory effects”. Further, the half-maximal inhibitory concentration (IC50) stood at 4.09 mM in experiment [1], 3.38 mM in experiment [2] and 3.28 mM in experiment [3] (setting [6]). For the same molecule, the “effect on enzyme activity of mutant III” value in experiment [2] (metal ion at 5 mM) is reported as “inhibitory effects”. Besides, the “effect on enzyme activity of mutant IV” value in experiment [3] (metal ion at 5 mM) is listed as “inhibitory effects”.

For `[Ba+2]` [Ba^2+], the “effect … of the wild-type enzyme” value in experiment [1] (metal ion at 5 mM) is on record as “enhanced”. In addition, the “IC50 on Wild-Type Enzyme” value in experiment [1] was “Activator”. For the same molecule, the “effect on enzyme activity of mutant III” value in experiment [2] (metal ion at 5 mM) was “enhanced”. The “IC50 on Mutant III” value in experiment [2] is given as “Activator”. Further, the “effect on enzyme activity of mutant IV” value in experiment [3] (metal ion at 5 mM) is recorded as “enhanced”. Also, the “IC50 on Mutant IV” value in experiment [3] (setting [6]) is “Activator”.

With `O=C(O)CN(CCN(CC(=O)O)CC(=O)O)CC(=O)O` [EDTA], the IC50 was found to be 6.41 mM in experiment [1], 6.89 mM in experiment [2] and 7.16 mM in experiment [3] (setting [6]).

In the case of `[Li+]` [Li^+], the “effect … of the wild-type enzyme” value in experiment [1] (metal ion at 5 mM) is “enhanced”. Besides, the “IC50 on Wild-Type Enzyme” value in experiment [1] is recorded as “Activator”. The “effect on enzyme activity of mutant III” value in experiment [2] (metal ion at 5 mM) was “enhanced”. Moreover, in experiment [2], the “IC50 on Mutant III” value was “Activator”. Moreover, in experiment [3] (metal ion at 5 mM), the “effect on enzyme activity of mutant IV” value is listed as “enhanced”. Besides, the “IC50 on Mutant IV” value in experiment [3] (setting [6]) was “Activator”.

Take `[Fe+2]` [Fe^2+]: the “effect … of the wild-type enzyme” value in experiment [1] (metal ion at 5 mM) is recorded as “inhibitory effects”. The IC50 in experiment [1] was 2.83 mM; in experiment [2], 3.96 mM; in experiment [3] (setting [6]), 4.43 mM. The “effect on enzyme activity of mutant III” value in experiment [2] (metal ion at 5 mM) was “inhibitory effects”. The “effect on enzyme activity of mutant IV” value in experiment [3] (metal ion at 5 mM) was “inhibitory effects”.

Consider Triton X-100 [Triton-X100], for which the “IC50 on Mutant III” value in experiment [4] is “-”. Moreover, the “IC50 on Mutant IV” value in experiment [3] (additive concentration 0.2%) is “-”. In addition, the “IC50 on Wild-Type Enzyme” value in experiment [5] is “-”.

As to `[Zn+2]` [Zn^2+], in experiment [1] (metal ion at 5 mM), the “effect … of the wild-type enzyme” value is on record as “inhibitory effects”. The figures for the IC50 in experiment [1], in experiment [2] and in experiment [3] (setting [6]) were 3.87 mM, 3.19 mM and 2.94 mM, respectively. For the same molecule, the “effect on enzyme activity of mutant III” value in experiment [2] (metal ion at 5 mM) is “inhibitory effects”. For the same molecule, the “effect on enzyme activity of mutant IV” value in experiment [3] (metal ion at 5 mM) is listed as “inhibitory effects”.

With `[Na+]` [Na^+], the “effect … of the wild-type enzyme” value in experiment [1] (metal ion at 5 mM) is on record as “increased”. Also, the “IC50 on Wild-Type Enzyme” value in experiment [1] is listed as “Activator”. Moreover, in experiment [2] (metal ion at 5 mM), the “inhibition rate on mutant III” value is recorded as 97.45%. In experiment [2], this molecule had an IC50 of 0.929 mM. For the same molecule, in experiment [3] (metal ion at 5 mM), the “effect on enzyme activity of mutant IV” value is reported as “increased”. Moreover, the “IC50 on Mutant IV” value in experiment [3] (setting [6]) is “Activator”.

Consider `CCCCCCCCCCCCOS(=O)(=O)[O-].[Na+]` [SDS], for which the IC50 in experiment [1] worked out at 7.89 mM; in experiment [2] it was 6.72 mM; in experiment [3] (setting [6]), 6.29 mM.
